Assay results as given in article PMC7828111, “In Search for Multi-Target Ligands as Potential Agents for Diabetes Mellitus and Its Complications—A Structure-Activity Relationship Study on Inhibitors of Aldose Reductase and Protein Tyrosine Phosphatase 1B” (Molecules, 2021).

Tests used:
human recombinant AR [1] = target: T1, human recombinant AR (Homo sapiens, UniProt P15121); assay: Inhibition of human recombinant AR, L-idose as substrate (NADPH oxidation at 340 nm); format: biochemical; conditions: for IC50: human recombinant AR, 2 mM L-idose as substrate, mean ± S.E.M; for AR inhibitory potency relative to the corresponding acetic acid analogues 1, 2: less potent than acetic acid analogue, analogue data ref 5; for Inhibition of human AR (in words): at concentrations up to 10 μM
T1 construct: made in house; host or cells: E. coli BL21(DE3)pLysS
Experimental: The human recombinant AR was expressed in BL21(DE3)pLysS E. coli cells and purified to electrophoretic homogeneity as previously described. The purified enzyme (specific activity 5.0 U/mg) was stored at −80 °C in 10 mM sodium phosphate buffer pH 7.0 containing 2 mM dithiothreitol and 30% (w/v) glycerol. AR activity was determined at 37 °C as previously described evaluating the decrease in absorbance at 340 nm linked to NADPH oxidation. […] One unit of enzyme activity is the amount that catalyzes the conversion of 1 μmol of substrate/min in the above assay conditions.
All compounds tested as aldose reductase inhibitors were dissolved in DMSO and added to the assay mixture containing 8 mU of purified AR. The reaction was started by addition of the substrate. The DMSO concentration in all the assays was kept constant at 0.5% (v/v) in order to avoid effects on AR activity.
The IC50 values were determined by nonlinear regression analysis using Prism GraphPad 6.0 fitting experimental data to the following equation:(1) vi/v0= Max−Min/1+( I/IC50)^slope +Min
In the equation, vi/v0, represents the ratio between the activity measured in the presence of the inhibitor and the activity measured in the absence of inhibitor; Max and Min represent the expected maximal and minimal value of the activity and were fixed at 1 and zero, respectively. Slope, which describes the steepness of curve in the transition region, was fixed at −1. For each compound, at least five different concentrations of inhibitor in the triplicate assay were analyzed.

human recombinant PTP1B [2] = target: T2, human recombinant PTP1B (Homo sapiens, UniProt P18031); assay: Inhibition of human recombinant PTP1B, p-nitrophenyl phosphate as substrate; format: biochemical; conditions: for IC50: human recombinant PTP1B, mean ± S.E.M; for IC50 / remaining activity at 50 µM: pNPP as substrate; for remaining activity at 50 µM: residual activity, read-out: PTP1B % enzyme residual activity at the indicated concentration
T2 sequence (P18031 1-435): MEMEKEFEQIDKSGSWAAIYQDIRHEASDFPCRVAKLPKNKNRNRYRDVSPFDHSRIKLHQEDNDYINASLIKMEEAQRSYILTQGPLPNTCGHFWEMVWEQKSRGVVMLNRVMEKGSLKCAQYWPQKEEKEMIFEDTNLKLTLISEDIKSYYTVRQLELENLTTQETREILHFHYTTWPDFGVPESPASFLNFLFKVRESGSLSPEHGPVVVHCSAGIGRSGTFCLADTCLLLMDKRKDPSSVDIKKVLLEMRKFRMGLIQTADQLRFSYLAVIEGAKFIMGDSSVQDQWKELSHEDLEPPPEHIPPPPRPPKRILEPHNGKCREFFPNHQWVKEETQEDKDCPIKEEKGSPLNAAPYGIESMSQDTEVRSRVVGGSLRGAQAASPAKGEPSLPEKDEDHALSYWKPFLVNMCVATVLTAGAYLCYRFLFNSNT
Experimental: PTP1B activity was determined as follow. […] After an appropriate interval time, the reaction was stopped diluting assay solution with 2 mL of KOH 0.1 M. The amount of p-nitrophenol released was determined measuring the absorbance of the solution at 400 nm using a spectrophotometer and a 1-cm optical pathlength (εmM of p-nitrophenol is 18). The IC50 value was determined measuring the pNPP hydrolysis rate in the presence of increasing inhibitor concentration. For each inhibitor, 15–16 different concentrations were used. All tests were carried out in triplicate and data obtained were normalized respect to control sample.

human recombinant AR [3] = target: T1, human recombinant AR; assay: Kinetic analysis of AR inhibition (Lineweaver-Burk and secondary plots); format: biochemical
Experimental: The kinetic analysis of compounds 4a, 4e and 4f was performed by measuring reaction rates with different L-idose concentrations s (S) in the absence and in the presence of different inhibitors concentrations. Data were analyzed by Linewever-Burk plots.

human recombinant PTP1B [4] = target: T2, human recombinant PTP1B; assay: Kinetic analysis of PTP1B inhibition (Lineweaver-Burk plot); format: biochemical; conditions: pNPP as substrate
Experimental: Kinetic analyses were carried out to dissect action mechanism of compound 4e and 4f. Briefly, the main kinetic parameters, Km and Vmax, were calculated measuring the initial hydrolysis rate of PTP1B in the presence of increasing pNPP concentration (seven different concentrations in the 0.5–25 mM range). All assays were carried out in duplicate. Data obtained were fitted using the Michaelis-Menten equation. To evaluate the action mechanism of inhibitors, we studied the dependence of Km and Vmax from inhibitors concentration, using three different inhibitor concentrations, at least. Data obtained were then analysed by double reciprocal plot (Lineweaver-Burk plot).

human recombinant AR [5] = target: T1, human recombinant AR; assay: Reversibility of AR inhibition (dialysis); format: biochemical
Experimental: In order to evaluate the reversibility of the inhibitory action, 8 mU of purified AR were assayed in the presence of 5 μM of compounds 4a, 4e and 4f. In these conditions less than 15% of the enzyme activity was measured in the presence of 2 mM L-idose as substrate. The mixture was then extensively dialysed on Amicon ultrafiltration membrane (cut off 10 KDa) against 10 mM sodium phosphate buffer, pH 7.0. After dialysis, the enzyme activity was again measured as above and compared to that of a mixture in the absence of inhibitor and treated in the same conditions.

human recombinant PTP1B [6] = target: T2, human recombinant PTP1B; assay: Reversibility assay (dilution test) with PTP1B; format: biochemical; conditions: saturating inhibitor, 60 min 37 °C, diluted 400 folds
Experimental: An aliquot of the enzyme was incubated for 60 min at 37 °C in the presence of saturating amount of PTP1B inhibitor. After this time, an aliquot of the enzyme was withdrawn and diluted 400 folds in the assay buffer containing 2.5 mM of pNPP. After 15 min, the reaction was stopped by adding 1 mL of KOH 0.2 M. The amount of pNP released was calculating measuring the absorbance at 400 nm of solutions using a spectrophotometer. Data obtained were normalized respect to control tests, which was carried out diluting the enzyme with DMSO, the solvent used to dissolve all compounds. Data reported in the figure represent the mean value +/− S.E.M. (n = 3).

bovine lens AR = system: bovine lens AR; parameters: method as in PMID 15781392; conditions: glyceraldehyde as substrate; cited from earlier work
[7] = residual activity, L-idose as substrate, read-out: AR % enzyme residual activity at the indicated concentration

Structure (SMILES)	IC50 (human recombinant AR [1]) [µM]	IC50 (human recombinant PTP1B [2]) [µM]	remaining activity at 50 µM (human recombinant PTP1B [2]) [%]	melting point [°C]	also measured
O=C(O)CCN1C(=O)/C(=C/c2cccc(Oc3ccccc3)c2)SC1=S [4a, 3-{(5Z)[4-Oxo-5-(3-phenoxyphenyl)methylidene-2-thioxothiazolidin-3-yl]}propanoic acid]	2.2 ± 0.1	34.1 ± 0.5			AR Ki relative to K′i (human recombinant AR [3]; Ki higher than K′i): approximately 4 fold; AR K′i (apparent dissociation constant, EIS complex) (human recombinant AR [3]; L-idose as substrate): 1.4 ± 0.022 µM; Mechanism of AR inhibition (human recombinant AR [3]; L-idose as substrate): mixed-type inhibition; Ki (human recombinant AR [3]; L-idose as substrate, read-out: AR Ki (apparent dissociation constant)): 5 ± 0.57 µM; Mechanism of PTP1B inhibition (human recombinant PTP1B [4]): mixed-type non-competitive inhibitors; PTP1B K′i (apparent dissociation constant, EIS complex) (human recombinant PTP1B [4]): 68.9 ± 1.5 µM; Ki (human recombinant PTP1B [4]; read-out: PTP1B Ki (apparent dissociation constant)): 10.6 ± 1.7 µM; AR enzyme activity recovered after removal of the inhibitor upon extensive dialysis (human recombinant AR [5]; 5 μM compound before dialysis): more than 90%; AR enzyme activity measured in the presence of compound (human recombinant AR [5]; 5 μM compound, 2 mM L-idose, before dialysis): less than 15%; Reversibility of PTP1B inhibition (human recombinant PTP1B [6]): reversible inhibitors
O=C(O)CCN1C(=O)S/C(=C\c2cccc(Oc3ccccc3)c2)C1=O [3a, 3-{(5Z)-[2,4-Dioxo-5-(3-phenoxyphenyl)methylidene]thiazolidin-3-yl}propanoic acid]	11.9 ± 0.9		79	177 to 180	
O=C(O)C=CCN1C(=O)SC(=Cc2cccc(Oc3ccccc3)c2)C1=O [5a]	3.9 ± 0.2	42.1 ± 0.3			Inhibitory activity towards bovine lens AR (bovine lens AR): very scarce inhibitory activity
O=C(O)CCN1C(=O)S/C(=C\c2cccc(OCCc3ccccc3)c2)C1=O [3e, 3-[(5Z)-2,4-Dioxo-{5-[3-(2-phenylethoxy)phenyl]methylidene}thiazolidin-3-yl]propanoic acid]	27.9 ± 3.1		64	130 to 133	AR inhibitory potency relative to the corresponding acetic acid analogues 1, 2 (human recombinant AR [1]): two orders of magnitude higher
O=C(O)CCN1C(=O)S/C(=C\c2ccc(Oc3ccccc3)cc2)C1=O [3b, 3-{(5Z)-[2,4-Dioxo-5-(4-phenoxyphenyl)methylidene]thiazolidin-3-yl}propanoic acid]	43.8 ± 7.1		56	198 to 202	
O=C(O)C=CCN1C(=O)SC(=Cc2ccc3ccccc3c2)C1=O [5e, 4-{(5Z)-[5-(2-Naphtylmethylidene)-2,4-dioxothiazolidin-3-yl]}-2-butenoic acid]		37.1 ± 0.4		235 to 238	remaining activity at 10 µM (human recombinant AR [1]; [7]): 86%; Inhibition of human AR (in words) (human recombinant AR [1]; L-idose as substrate): scarce inhibition
O=C(O)C=CCN1C(=O)SC(=Cc2ccc(Oc3ccccc3)cc2)C1=O [5b]		39.7 ± 0.1			remaining activity at 10 µM (human recombinant AR [1]; [7]): 84%; Inhibition of human AR (in words) (human recombinant AR [1]; L-idose as substrate): scarce inhibition; Inhibitory activity towards bovine lens AR (bovine lens AR): almost inactive
O=C(O)CCN1C(=O)/C(=C/c2ccc(Oc3ccccc3)cc2)SC1=S [4b, 3-{(5Z)[4-Oxo-5-(4-phenoxyphenyl)methylidene-2-thioxothiazolidin-3-yl]}propanoic acid]	7.6 ± 0.6	29.5 ± 0.4		218 to 219	
O=C(O)CCN1C(=O)/C(=C/c2cccc(OCc3ccccc3)c2)SC1=S [4c, 3-{(5Z)-5-[(3-Benzyloxyphenyl)methylidene]-4-oxo-2-thioxothiazolidin-3-yl}propanoic acid]	3.8 ± 0.1	42.8 ± 0.7			
O=C(O)CCN1C(=O)S/C(=C\c2ccc(OCc3ccccc3)cc2)C1=O [3d, 3-{(5Z)-[5-(4-Benzyloxyphenyl)methylidene]-2,4-dioxothiazolidin-3-yl}propanoic acid]	35.7 ± 3		77	195 to 199	Inhibition of human PTP1B by virtual screening hit (in words) (human recombinant PTP1B [2]; in vitro evaluation of selected virtual hits, previously conducted): moderate capability to inhibit
O=C(O)C=CCN1C(=O)SC(=Cc2cccc3ccccc23)C1=O [5d, 4-{(5Z)-[5-(1-Naphtylmethylidene)-2,4-dioxothiazolidin-3-yl]}-2-butenoic acid]	3.7 ± 0.2	40.3 ± 0.5		170 to 172	
O=C(O)C=CCN1C(=O)SC(=Cc2ccc(-c3ccccc3)cc2)C1=O [5c]		34.8 ± 0.5			remaining activity at 5 µM (human recombinant AR [1]; at 5 µM, residual activity, L-idose as substrate, read-out: AR % enzyme residual activity at the indicated concentration): 88%; Inhibition of human AR (in words) (human recombinant AR [1]; L-idose as substrate): scarce inhibition; Inhibitory activity towards bovine lens AR (bovine lens AR): almost inactive
O=C(O)CCN1C(=O)/C(=C/c2ccc(OCc3ccccc3)cc2)SC1=S [4d, 3-{(5Z)-5-[(4-Benzyloxyphenyl)methylidene]-4-oxo-2-thioxothiazolidin-3-yl}propanoic acid]	8.4 ± 0.7	34.9 ± 0.7		170 to 173	
O=C(O)CCN1C(=O)S/C(=C\c2ccc(OCCc3ccccc3)cc2)C1=O [3f, 3-[(5Z)-2,4-Dioxo-{5-[4-(2-phenylethoxy)phenyl]methylidene}thiazolidin-3-yl]propanoic acid]	50.2 ± 4.6		46	160 to 163	AR inhibitory potency relative to the corresponding acetic acid analogues 1, 2 (human recombinant AR [1]): two orders of magnitude higher
O=C(O)CCN1C(=O)S/C(=C\c2cccc(OCc3ccccc3)c2)C1=O [3c, 3-{(5Z)-[5-(3-Benzyloxyphenyl)methylidene]-2,4-dioxothiazolidin-3-yl}propanoic acid]	14.3 ± 1		76	142 to 145	
